Data on two molecules can be found in patent US20240002437A1, “COMPOSITIONS AND METHODS OF TREATING INFLAMMATORY LUNG DISEASES” (priority 2020, published 2024).

One assay deals with T1, TRPV4 (Mus musculus, UniProt Q9EPK8).
T1 construct: host or cells: mice (lung), cited studies
The following applies: mice treated with the TRPV4 antagonist; literature (Yin 2016); only protective if given preventatively; cited from earlier work.

Assay [1] concerns eNOS phosphorylation at T495. In words: Western blot of pT495-eNOS in PAEC. The format is cell-based, ovine. The settings on record: PMA 100 nM, 10, 30 and 60 minutes. Here is the method:
(§1) Primary cultures of ovine pulmonary arterial endothelial cells (PAEC) were isolated as described previously (L. K. Kelly, Am J Physiol Lung Cell Mol Physiol, 286(5), L984-91 (2004)). Briefly, cells were maintained in Dulbecco's modified Eagle medium (DMEM) supplemented with 10% fetal calf serum (Hyclone, Logan, UT), antibiotics/antimycotic (500 IU Penicillin, 500 μg/ml Streptomycin, 1.25 μg/ml Amphotericin B; MediaTech, Herndon, VA) at 37° C. in a humidified atmosphere with 5% CO2 and 95% air. Cells were used for experiments between passages 9-14, seeded at ˜50% confluence, and utilized when fully confluent.
Protein extracts were prepared using lysis buffer (50 mM Tris-HCl, pH 7.6, 0.5% Triton X-100, 20% glycerol) containing HALT™ protease inhibitor cocktail (Pierce Laboratories, Rockford, IL). The extracts were then subjected to centrifugation (15,000 g for 15 min at 4° C.). Supernatant fractions were assayed for protein concentration using the Bradford reagent (Bio-Rad, Richmond, CA) then used for Western blot analyses. Protein extracts (25-50 μg) were separated on Long-Life 4-20% Tris-SDS-Hepes gels and electrophoretically transferred to IMMUNO-BLOT™ PVDF membrane (Bio-Rad Laboratories, Hercules, CA) Immunoblotting was then carried out using the appropriate antibodies in Tris-base buffered saline with 0.1% Tween 20 and 5% nonfat milk. After washing, the membranes were probed with horseradish peroxidase-conjugated goat antiserum to rabbit or mouse. Reactive bands were visualized using chemiluminescence (Super Signal West Femto; Pierce, Rockford, IL) on a LI-COR Odyssey image station (Lincoln, NE). Bands were quantified using LI-COR Image Station software. Loading was normalized by reprobing the membranes with an antibody specific to β-actin.
For orientation: In western blotting, separated proteins are transferred to a membrane and probed.

A further assay has as its system NOS-derived superoxide. The assay can be described thus: NOS-derived superoxide by EPR (eNOS uncoupling) in PAEC. The format is cell-based, ovine. The following applies: PMA. As for the experimental part: as §1
Superoxide levels were estimated by electron paramagnetic resonance (EPR) assay using the spin-trap compound 1-hydroxy-3-methoxycarbonyl-2,2,5,5-tetramethylpyrrolidine HCl (CMH, Axxora) as described previously. Superoxide in PAEC was trapped by incubating PAEC with 20 μl of CMH stock solution (20 mg/ml) for 1 h, followed by trypsinization and centrifugation at 500 g. The cell pellet was suspended in 35 μl DPBS and loaded into a capillary tube which was then analyzed with a MiniScope MS200 EPR machine (Magnettech, Berlin, Germany). Pre-incubating cells or tissue with 100 μM ethylisothiourea (ETU, Sigma-Aldrich) for 30 min followed by incubation with CMH measured NOS-derived superoxide. EPR spectra were analyzed using ANALYSIS v.2.02 software (Magnettech). Differences between levels of samples incubated in the presence and absence of ETU were used to determine NOS-dependent superoxide generation.

For assay [2], the system named is mitochondrial redistribution of eNOS. The assay can be described thus: Immunofluorescent microscopy of eNOS mitochondrial redistribution in PAEC. The class given is cell-based, ovine. The settings on record: PMA. As for the experimental part:
as §1
PAEC were grown on cover glass for three days after reaching 100% confluence, and fixed with 4% paraformaldehyde (Thermo Fisher Scientific) for 30 min, permeabilized with 100% cold methanol at −20° C. for 5 min Cell then blocked with 1% BSA for 1 hour, and later incubated with first antibody overnight at 4° C. then secondary antibody at room temperature for 1 hour. Finally, cells were mounted on microscope slides using ProLong Glass Antifade Mountant, (Invitrogen, Carlsbad, CA, Cat #P36980). […] The images were analyzed with ImagePro Plus 7.0 (W. Casavan, Microscopy Today, 11(6), 48-50 (2003)) or ImageJ software to evaluate the colocalization of fluorescent.

The subject of another assay is PAEC. In words: Mitochondrial bioenergetics (XF24 Analyzer, OCR) in PAEC. The class given is cell-based, ovine. The settings on record: PMA. Here is the method: as §1
The XF24 Analyzer (Seahorse Biosciences) and XF CELL MITO STRESS™ Test Kit (#101706-100; Seahorse Biosciences) were used for the mitochondrial bioenergetic analyses. The optimum number of cells/well was determined to be 75,000/0.32 cm^2. At the end of each study, the XF24 culture microplates were incubated in a CO2-free XF prep station at 37° C. for 45 min to allow temperature and pH calibration. Subsequently, each well was sequentially injected Oligomycin (1 μM final concentration), carbonyl cyanide 4-(trifluoromethoxy) phenylhydrazone (FCCP, 1 μM final concentration), and Rotenone+antimycin A (1 μM final concentration of each) and measured the oxygen consumption rate (OCR). These agents were used to determine basal mitochondrial respiration, reserve respiratory capacity and maximal respiratory capacity measurements in pmols/min of oxygen consumed.

T1 sequence (Q9EPK8 whole entry): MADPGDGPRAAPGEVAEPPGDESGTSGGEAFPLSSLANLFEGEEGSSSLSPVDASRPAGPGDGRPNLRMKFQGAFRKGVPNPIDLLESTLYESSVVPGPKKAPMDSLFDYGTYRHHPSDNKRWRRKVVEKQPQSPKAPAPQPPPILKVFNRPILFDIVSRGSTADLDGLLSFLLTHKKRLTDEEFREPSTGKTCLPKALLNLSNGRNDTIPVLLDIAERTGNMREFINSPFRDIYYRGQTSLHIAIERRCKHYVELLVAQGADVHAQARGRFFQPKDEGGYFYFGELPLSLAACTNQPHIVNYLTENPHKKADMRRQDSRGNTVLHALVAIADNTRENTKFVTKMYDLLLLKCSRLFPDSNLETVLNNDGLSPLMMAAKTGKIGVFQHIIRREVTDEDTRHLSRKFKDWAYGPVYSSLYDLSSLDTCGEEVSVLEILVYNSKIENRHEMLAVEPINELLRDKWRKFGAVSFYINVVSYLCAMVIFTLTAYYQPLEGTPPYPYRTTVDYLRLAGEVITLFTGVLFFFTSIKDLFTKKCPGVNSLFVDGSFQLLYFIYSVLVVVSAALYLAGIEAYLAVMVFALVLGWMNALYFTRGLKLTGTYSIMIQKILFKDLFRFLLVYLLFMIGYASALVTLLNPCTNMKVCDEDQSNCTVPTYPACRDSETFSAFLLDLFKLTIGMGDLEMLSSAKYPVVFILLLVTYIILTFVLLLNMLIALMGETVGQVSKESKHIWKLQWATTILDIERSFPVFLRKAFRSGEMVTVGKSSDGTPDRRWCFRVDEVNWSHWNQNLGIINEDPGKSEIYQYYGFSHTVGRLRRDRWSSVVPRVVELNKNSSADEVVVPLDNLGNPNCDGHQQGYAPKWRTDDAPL

`O=C(NC1(c2ccccc2)CC1)c1c(CN2CCC(N3CCCCC3)CC2)c(-c2cccc(C(F)(F)F)c2)nc2cc(Br)ccc12` [GSK2193874]: the “protection against acid-induced ALI” value at TRPV4 was “protected against acid-induced ALI”.
For `CCCCCCCCCCCCCC(=O)O[C@@H]1[C@@H](C)[C@@]2(O)[C@@H](C=C(CO)C[C@]3(O)C(=O)C(C)=C[C@@H]23)[C@@H]2C(C)(C)[C@]12OC(C)=O` [PMA, Phorbol 12-myristate 13-acetate], the pT495-eNOS levels result in assay [1] is listed as “increases in pT95-eNOS levels”. In the assay on NOS-derived superoxide, the “eNOS uncoupling (NOS derived superoxide)” value is “eNOS uncoupling”. Besides, the “mitochondrial redistribution of eNOS” value in assay [2] is reported as “induced the mitochondrial redistribution of eNOS”. Also, the “mitochondrial bioenergetics (OCR, reserve and maximal respiratory capacities)” value in the assay with PAEC is “disruption of mitochondrial bioenergetics”.
